Laboratory results published in patent US7820714B2, “Siglec inhibitors” (priority 2001, dated 2010).
Where two headings read alike, the source gives them in different places.

How the values were obtained:
Siglec-1 (sialoadhesin) = Siglec-1 (sialoadhesin) (Mus musculus, UniProt Q62230); assay: Hapten inhibition assay, Siglec-1 (sialoadhesin); type: binding; settings: for Siglec-1 (sialoadhesin) percentage in parentheses below the IC50 bound: at the concentration of the IC50 bound, meaning not defined in the patent; for Siglec-1 (sialoadhesin) rIP: quotient IC50 reference compound / IC50 compound
Experimental: (§1) Preferably, the inhibition can be determined by a Hapten inhibition test. […] After overnight incubation at 4° C. the unbound complexes are removed by washing the cells and the bound radioactivity is determined. From the data obtained in this way, the concentrations are found which lead to 50% inhibition of the binding (IC50 values) (5, 6). Specially preferred during the Hapten inhibition test was 10 μl of the complex solution with an activity of 10^3 Bq ^125I mixed with the same volume of a solution of the substance to be investigated (concentrated three times) and incubated at 4° C. for one hour. Then followed the addition of 10 μl of a suspension of target cells, preferably 0.25 to 0.5% of human erythrocytes and incubation overnight at 4° C. The unbound radioactivity is removed by washing the cells five times with 200 μl of washing buffer, preferably phosphate-buffered saline with 0.1% (W/V) bovine serum albumin, and the cell-bound activity is determined with a γ-counter. […] The inhibition is determined in that the value without inhibitor is set to 0% and that with the sialidase-treated cells is set equal to 100%.
(§2) The IC50 value is the siglec inhibitor concentration which leads to 50% inhibition in the binding in the Hapten inhibition assay.

Siglec-4a (MAG) = biological target: T1, Siglec-4a (MAG) (UniProt P20917); assay: Hapten inhibition assay, Siglec-4a (MAG); settings: for Siglec-4a (MAG) rIP: quotient IC50 reference compound / IC50 compound; for IC50: read-out: Siglec-4a (MAG) IC50; for Siglec-4a (MAG) percentage in parentheses below the IC50 bound: at the concentration of the IC50 bound, meaning not defined in the patent
T1 sequence (P20917 1-627): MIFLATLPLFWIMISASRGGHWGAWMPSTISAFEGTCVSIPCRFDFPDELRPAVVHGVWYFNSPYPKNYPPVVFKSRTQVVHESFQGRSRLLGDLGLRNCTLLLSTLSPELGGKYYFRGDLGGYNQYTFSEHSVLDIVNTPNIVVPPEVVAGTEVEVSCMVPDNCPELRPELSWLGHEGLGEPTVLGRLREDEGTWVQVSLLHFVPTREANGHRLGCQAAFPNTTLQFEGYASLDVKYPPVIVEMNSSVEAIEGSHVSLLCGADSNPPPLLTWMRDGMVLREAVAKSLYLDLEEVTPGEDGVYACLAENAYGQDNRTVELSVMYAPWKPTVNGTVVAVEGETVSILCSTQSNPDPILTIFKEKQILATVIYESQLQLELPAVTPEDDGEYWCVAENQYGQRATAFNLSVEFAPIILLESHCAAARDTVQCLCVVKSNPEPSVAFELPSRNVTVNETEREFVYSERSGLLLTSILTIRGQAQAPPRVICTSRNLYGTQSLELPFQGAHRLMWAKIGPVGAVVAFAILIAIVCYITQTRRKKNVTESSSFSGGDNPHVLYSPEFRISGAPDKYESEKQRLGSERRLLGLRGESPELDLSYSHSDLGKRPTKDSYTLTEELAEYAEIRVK
Experimental: Preferably, the inhibition can be determined by a Hapten inhibition test. […] After overnight incubation at 4° C. the unbound complexes are removed by washing the cells and the bound radioactivity is determined. […] Then followed the addition of 10 μl of a suspension of target cells, preferably 0.25 to 0.5% of human erythrocytes and incubation overnight at 4° C. The unbound radioactivity is removed by washing the cells five times with 200 μl of washing buffer, preferably phosphate-buffered saline with 0.1% (W/V) bovine serum albumin, and the cell-bound activity is determined with a γ-counter. […] The inhibition is determined in that the value without inhibitor is set to 0% and that with the sialidase-treated cells is set equal to 100%.

Siglec-2 (human CD22) = biological target: T2, Siglec-2 (human CD22) (Homo sapiens, UniProt P20273); assay: Hapten inhibition assay, Siglec-2 (human CD22); type: binding; settings: for Siglec-2 (human CD22) rIP: quotient IC50 reference compound / IC50 compound; for IC50: unit inferred
T2 sequence (P20273 20-138 limits assumed): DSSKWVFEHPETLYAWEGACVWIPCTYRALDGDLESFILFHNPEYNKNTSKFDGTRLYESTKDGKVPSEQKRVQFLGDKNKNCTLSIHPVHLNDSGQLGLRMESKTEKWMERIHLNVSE
Experimental: as §1, §2

Siglec-2 (murine CD22) = biological target: T3, Siglec-2 (murine CD22) (Mus musculus, UniProt P35329); assay: Hapten inhibition assay, Siglec-2 (murine CD22); type: binding; settings: for Siglec-2 (murine CD22) rIP: quotient IC50 reference compound / IC50 compound; for IC50: unit inferred
T3 sequence (P35329 22-148 limits assumed): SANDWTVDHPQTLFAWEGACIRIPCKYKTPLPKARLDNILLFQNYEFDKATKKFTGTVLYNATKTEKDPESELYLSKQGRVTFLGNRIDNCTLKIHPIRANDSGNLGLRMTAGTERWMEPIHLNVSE

Sequence of Siglec-1 (sialoadhesin) (Q62230 20-136 limits assumed): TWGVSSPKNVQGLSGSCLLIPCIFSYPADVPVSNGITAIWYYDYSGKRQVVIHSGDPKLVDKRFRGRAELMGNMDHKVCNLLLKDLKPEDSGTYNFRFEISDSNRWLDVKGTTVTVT

Row | Molecule | Siglec-1 (sialoadhesin) percentage in parentheses below the IC50 bound (Siglec-1 (sialoadhesin)) | IC50 (Siglec-1 (sialoadhesin); bounds given in mM) [mM] | Siglec-1 (sialoadhesin) rIP (Siglec-1 (sialoadhesin)) | Siglec-4a (MAG) rIP (Siglec-4a (MAG)) | IC50 (Siglec-4a (MAG); unit inferred) [mM] | Siglec-2 (human CD22) rIP (Siglec-2 (human CD22)) | IC50 (Siglec-2 (human CD22)) [µM] | Siglec-2 (murine CD22) rIP (Siglec-2 (murine CD22)) | IC50 (Siglec-2 (murine CD22)) [µM] | IC50 (Siglec-1 (sialoadhesin); unit inferred) [mM] | Siglec-4a (MAG) percentage in parentheses below the IC50 bound (Siglec-4a (MAG)) | IC50 (Siglec-4a (MAG); bounds given in mM) [mM]
1 | COC1(C(=O)O)CC(O)C(NC(C)=O)C(C(O)C(O)CNC(=O)CC(C)=O)O1 (stereo not drawn) [Methyl-α-9-N-acetoacetyl-amino-9-desoxy-Neu5Ac] | (62%) | > 10 | <0.05 | 6.2 | 1.01 | – | – | – | – | – | – | –
2 | CO[C@]1(C(=O)O)C[C@H](O)[C@@H](NC(=O)CO)[C@H]([C@H](O)[C@H](O)CO)O1 [Methyl-α-5-N-glycolyl-neuraminic acid] | – | – | – | – | – | 1.0 | 1010 | 8.3 | 703 | – | – | –
3 | COC1(C(=O)O)CC(O)C(NC(C)=O)C(C(O)C(O)C(=O)O)O1 (stereo not drawn) [Methyl-α-9-carboxy-Neu5Ac] | (63%) | – | <0.2 | <<2.4 | > 1 | – | – | – | – | > 4 | (87%) | –
4 | CO[C@]1(C(=O)O)C[C@H](O)[C@@H](NC(C)=O)[C@H]([C@H](O)[C@H](O)CNC(C)=S)O1 [Methyl-α-9-N-thioacetyl-amino-9-desoxy-Neu5Ac] | – | – | 0.3 | 6.5 | 0.733 | – | – | – | – | 6 | – | –
5 | COC1(C(=O)O)CC(O)C(NC(C)=O)C(C(O)C(O)CNC(=O)Cc2ccccc2)O1 (stereo not drawn) [Methyl-α-9-N-(phenylacetyl)-amino-9-desoxy-Neu5Ac] | – | – | – | 7 | 0.367 | – | – | – | – | – | – | –
6 | CCC(=O)NC1C(O)CC(OCc2ccccc2)(C(=O)O)OC1C(O)C(O)CO (stereo not drawn) [Benzyl-α-5-N-propanoyl-neuraminic acid] | – | – | 3.4 | 4.8 | 2.5 | – | – | – | – | 0.215 | – | –
7 | Methyl-α-9-N-(cyclobutendion)-amino-9-desoxy-Neu5Ac | – | – | – | – | – | 5.7 | 180 | 7.4 | 620 | – | – | –
8 | CO[C@]1(C(=O)O)C[C@H](O)[C@@H](NC(C)=O)[C@H]([C@H](O)[C@H](O)CNC(=O)CN)O1 [Methyl-α-9-N-aminoacetyl-9-desoxy-Neu5Ac] | – | – | 0.3 | 3.3 | 3.4 | – | – | – | – | 7.48 | – | –
9 | CO[C@]1(C(=O)O)C[C@H](O)[C@@H](NC(C)=O)[C@H]([C@H](O)[C@H](O)CNC(=O)c2ccccc2-c2ccccc2)O1 [Methyl-α-9-N-(biphenyl-2-carbonyl)-amino-9-desoxy-Neu5Ac] | – | – | 0.3 | – | – | 10 | 97 | 9.5 | 647 | 2.6 | – | –
10 | CC(=O)N[C@H]1[C@H]([C@H](O)[C@H](O)CO)O[C@@](SCc2ccccc2)(C(=O)O)C[C@@H]1O [Benzylthio-α-Neu5Ac] | – | – | 4.1 | 3.0 | 2 | – | – | – | – | 0.28 | – | –
11 | O=C(NC1C(O)CC(OCc2ccccc2)(C(=O)O)OC1C(O)C(O)CO)c1ccccc1 (stereo not drawn) [Benzyl-α-5-N-benzoyl-neuraminic acid] | (63%) | > 10 | <0.05 | >0.27 | – | – | – | – | – | – | (27%) | < 10
12 | CCOc1c(NC[C@@H](O)[C@@H](O)[C@@H]2O[C@@](OC)(C(=O)O)C[C@H](O)[C@H]2NC(C)=O)c(=O)c1=O [Methyl-α-9-N-(ethoxycyclobutendion)-amino-9-desoxy-Neu5Ac] | – | – | 0.2 | 32 | 0.24 | – | – | – | – | 1.33 | – | –
13 | CO[C@]1(C(=O)O)C[C@H](O)[C@@H](NC(C)=O)[C@H]([C@H](O)[C@H](O)CNC(=O)C(CNC(C)=O)NC(C)=O)O1 (stereo partly drawn) [Methyl-α-9-N-(2,3-diacetylaminopropanoyl)-amino-9-desoxy-Neu5Ac] | (80%) | > 10 | <<0.1 | 2.3 | 2.5 | – | – | – | – | – | – | –
14 | CC(=O)N[C@H]1[C@H]([C@H](O)[C@H](O)CO)O[C@@](O[C@H]2[C@@H](O)[C@@H](CO)O[C@@H](O[C@H]3[C@H](O)[C@@H](O)C(O)O[C@@H]3CO)[C@@H]2O)(C(=O)O)C[C@@H]1O (stereo partly shown) [2,3-sialyllactose, reference compound] | – | – | 2.4 | 7.3 | 1.6 | – | – | – | – | 0.385 | – | –
15 | CCCCCC(=O)NCC(O)C(O)C1OC(OC)(C(=O)O)CC(O)C1NC(C)=O (stereo not drawn) [Methyl-α-9-N-hexanoyl-amino-9-desoxy-Neu5Ac] | – | – | 0.7 | 54 | 0.198 | – | – | – | – | 1.46 | – | –
16 | CCCC(=O)N[C@H]1[C@H]([C@H](O)[C@H](O)CO)O[C@@](OCc2ccccc2)(C(=O)O)C[C@@H]1O [Benzyl-α-5-N-butanoyl-neuraminic acid] | – | – | 2.7 | 1.5 | 5.3 | – | – | – | – | 0.25 | – | –
17 | CO[C@]1(C(=O)O)C[C@H](O)[C@@H](NC(C)=O)[C@H]([C@H](O)[C@H](O)C[S+](C)[O-])O1 (stereo partly drawn) [Methyl-α-9-methylsulphoxido-9-desoxy-Neu5Ac] | – | – | <0.05 | 8.5 | 0.697 | – | – | – | – | 2 | – | –
18 | COC1(C(=O)O)CC(O)C(NC(C)=O)C(C(O)C(O)CSC)O1 (stereo not drawn) [Methyl-α-9-methylthio-9-desoxy-Neu5Ac] | – | – | <<0.05 | <<0.27 | – | – | – | – | – | – | (116%) | > 10
19 | COC(=O)C1(OC)CC(O)C(NC(=O)CF)C(C(O)C(O)CO)O1 (stereo not drawn) [Methyl-α-methyl-α-5-N-fluoracetyl-neuraminic acid] | – | – | 1.9 | 17.1 | 0.28 | – | – | – | – | 0.625 | – | –
20 | CO[C@]1(C(=O)O)C[C@H](O)[C@@H](NC(C)=O)[C@H]([C@H](O)[C@H](O)CNC(=O)Cc2ccc(-c3ccccc3)cc2)O1 [Methyl-α-9-N-(biphenyl-4-acetyl)-amino-9-desoxy-Neu5Ac] | – | – | 0.3 | – | – | 29 | 35 | 48 | 123 | 3 | – | –
21 | COC1(C(=O)O)CC(O)C(NC(C)=O)C(C(O)C(O)CNS(=O)(=O)c2cccc3c(N(C)C)cccc23)O1 (stereo not drawn) [Methyl-α-9-N-dansyl-amino-9-desoxy-Neu5Ac] | – | – | 2.6 | 19 | 0.317 | – | – | – | – | 0.26 | – | –
22 | COC1(C(=O)O)CC(O)C(NC(C)=O)C(C(O)C(O)CNC(=O)C(N)=O)O1 (stereo not drawn) [Methyl-α-9-N-oxamido-amino-9-desoxy-Neu5Ac] | (57%) | – | <0.2 | – | – | – | – | – | – | > 4 | – | –
23 | Methyl-α-methyl-α-5-N-fluoracetylaminoacetyl-neuraminic acid | – | – | 0.4 | – | – | – | – | – | – | 2.5 | (90%) | > 10
24 | COC1(C(=O)O)CC(O)C(NC(C)=O)C(C(O)C(O)CNC(=O)C(F)(F)F)O1 (stereo not drawn) [Methyl-α-9-N-trifluoracetyl-amino-9-desoxy-Neu5Ac] | – | – | 0.5 | 10 | 0.55 | – | – | – | – | 4 | – | –
25 | COC1(C(=O)O)CC(O)C(NC(C)=O)C(C(O)C(O)CNC(=O)CNC(=O)CN)O1 (stereo not drawn) [Methyl-α-9-N-(gly)2-amino-9-desoxy-Neu5Ac] | (100%) | > 10 | <<0.1 | 0.9 | 5 | – | – | – | – | – | – | –
26 | COC1(C(=O)O)CC(O)C(NC(C)=O)C(C(O)C(O)CNC(=O)CNC(=O)CNC(=O)CN)O1 (stereo not drawn) [Methyl-α-9-N-(gly)3-amino-9-desoxy-Neu5Ac] | (11%) | < 10 | >>0.05 | <<0.27 | – | – | – | – | – | – | (88%) | > 10
27 | CO[C@]1(C(=O)O)C[C@H](O)[C@@H](NC(C)=O)[C@H]([C@H](O)[C@H](O)CS(C)(=O)=O)O1 [Methyl-α-9-methylsulphonyl-9-desoxy-Neu5Ac] | – | – | <<0.05 | 0.1 | 3.4 | – | – | – | – | 2 | – | –
